Assay results as given in patent US20100028459A1, “NUTRITIONAL SUPPLEMENT COMPOSITION FOR TREATMENT OF OCULAR DISEASES” (priority 2006, published 2010).

Columns and labels:
[1] = lutein supplementation in human; cited from earlier work
[2] = lutein supplementation and AMD incidence (our studies); assay type: in vivo; details: supplementation of 10 mg/day
Protocol: Therefore, the subject composition preferably provides preferably 10 mg of pure lutein per composition, e.g. per capsule.

[3] = AMD patients; cited from earlier work

Molecule	macular pigment [1]	AMD incidence [2]	visual field loss [3]
CC1=C[C@H](O)CC(C)(C)[C@H]1/C=C/C(C)=C/C=C/C(C)=C/C=C/C=C(C)/C=C/C=C(C)/C=C/C1=C(C)C[C@@H](O)CC1(C)C [Lutein]	increased macular pigment	decreases the AMD incidence	–
Zinc	–	–	slows visual field loss
